{
  "source": "patent US20240139190A1",
  "about": "“NOVEL ANTIPARASITIC COMPOUNDS AND METHODS” (The Board of Regents of The University of Texas System, priority 2019, published 2024)",
  "key": {"[1]": {"test_system": "L. donovani axenic amastigotes", "assay": "alamarBlue assay, L. donovani axenic amastigotes", "format": "cell-based, Leishmania donovani", "experimental": "For other parasites, L. donovani, strain MHOM/SD/62/1S-C12D, was grown as previously described. Plasmodium falciparum parasites of the 3D7 strain were cultured in RPMI 1640 medium supplemented with 37.5 mM HEPES, 10 mM D-glucose, 2 mM L-glutamine, 100 μM hypoxanthine, 25 μg/mL gentamicin, 4% (v/v) human serum and 0.25% (v/v) Albumax II, at a 2% haematocrit in an atmosphere of 1% 02, 3% CO2 and 96% N2. Staging and parasitemia of the in vitro culture were assessed by light microscopy of Giemsa-stained thin blood smears.\nLeishmania amazonensis axenic amastigotes (100 μL, 2×10^6 cells/mL) were added to 96-multiwell plates containing 100 μL of amastigote culture medium with an appropriate compound dilution series. 0.1% DMSO (no drug) served as a positive control (100%), and 5 μM amphotericin B served as a negative growth control (0%). Only internal wells were used to minimize edge effects from evaporation. […] Similarly, the cytotoxicity of each compound was determined against RAW 264.7 cells and HepG2 cell lines, following 72 h incubation at 37° C. […]\nMMV676477 was tested against several other parasites: the axenic amastigotes of Leishmania donovani and Leishmania tarentolae, blood-stage Plasmodium falciparum, and Trypanosoma brucei. The compound's activity was measured using alamarBlue®, Malaria SYBR green I fluorescence (MSF) and CellTiter-Glo® luminescent assays. […]"}, "[2]": {"test_system": "cellular tubulin of L. amazonensis", "assay": "Polymerized vs. unpolymerized tubulin in parasites (differential centrifugation, western blot)", "format": "cell-based, Leishmania amazonensis", "conditions": "24 h at EC50^72 h, densitometry", "description": "One reason why MMV676477 might affect parasite cell division is that, like paclitaxel, it might affect microtubule polymerization, either directly or indirectly. The degree to which MMV676477 affected microtubules polymerization in cells was examined. […] Centrifugation of these extracts allowed separation of insoluble polymeric (pellet) and soluble dimeric (supernatant) tubulin. […] The intensity of α-tubulin staining was examined by normalizing it to the intensity of a membrane protein (gp46 for promastigotes in FIG. 4D; p8 for amastigotes in FIG. 4E)."}, "[3]": {"assay": "Cytotoxicity, alamarBlue", "format": "cell-based", "conditions": "mouse, RAW 264.7 macrophage cells, read-out: CC50^72 h cytotoxicity (macrophage / mammalian cells)", "experimental": "Leishmania amazonensis axenic amastigotes (100 μL, 2×10^6 cells/mL) were added to 96-multiwell plates containing 100 μL of amastigote culture medium with an appropriate compound dilution series. 0.1% DMSO (no drug) served as a positive control (100%), and 5 μM amphotericin B served as a negative growth control (0%). Only internal wells were used to minimize edge effects from evaporation. Axenic amastigotes were incubated at 32° C. with a compound/drug for 72 h prior to measurement. Similarly, the cytotoxicity of each compound was determined against RAW 264.7 cells and HepG2 cell lines, following 72 h incubation at 37° C. (promastigotes at 26° C.).\n10% alamarBlue® (Thermo Fisher Scientific) was used to measure the growth of both parasite and mammalian cells. Conversion from a blue oxidized state to a pink reduced state was assessed visually at 6 hr. The fluorescence signal was measured with a BioTek Synergy H1 plate reader (530 nm excitation, 570 nm emission). For bioluminescence assays using L. amazonensisluc, relative luminescence units (RLU) were measured using Britelite Plus (PerkinElmer, USA). Luminescence produced by this luciferase reaction is proportional to the amount of luciferase-expressing, viable L. amazonensisluc. Following five-minute incubation at room temperature, the luminescence was measured with a BioTek Synergy H1 plate reader. […]"}, "[4]": {"molecular_target": "purified L. tarentolae tubulin (Leishmania tarentolae, UniProt A0A640KCM0+A0A640KQN0)", "assay": "Tubulin polymerization turbidity assay, Leishmania tubulin", "format": "biochemical", "experimental": "L. tarentolae (Parrot strain from ATCC) tubulin was purified. Briefly, promastigotes of L. tarentolae were grown to a high density (˜1×10^8 cells/mL), harvested, and resuspended in PME+P buffer containing 100 mM piperazine N, N′-bis (2-ethanesulfonic acid) (PIPES) buffer (pH 6.9), 1 mM glycol ether diamine tetraacetic acid (EGTA), 1 mM MgCl2, 1 mM benzamidine, 0.5 mM phenylmethylsulfonyl fluoride, 25 μg/ml leupeptin. The resulting suspension was extensively sonicated on ice with a probe sonicator (Misonix), cooled on ice for 30 minutes and centrifuged at 40,000×g for 1 hour at 4° C. using an ultracentrifuge (Beckman, Fullerton, CA). The resulting supernatant was filtered through a glass wool or 0.45-micron filter before loading into an equilibrated DEAE-Sepharose Fast Flow matrix (Amersham Biosciences). The column was washed with two column volumes of PME+P and subsequently four column volumes PME+P containing 0.1 M KCl and 0.25 M glutamate (pH 6.9). Tubulin was eluted with two column volumes PME+P containing 0.3 M KCl and 0.75 M glutamate (pH 6.9), and tubulin-rich fractions were confirmed by tubulin polymerization assays. The assembly-competent tubulin was pooled together and diluted into 1×PME buffer, 2 mM GTP, 10 mM MgCl2 and 8% DMSO (v/v). Tubulin was incubated in this buffer for 45 minutes at 30° C. to promote assembly, centrifuged at 50,000×g at 30° C. for 30 min, and re-suspended in 1 mL of ice-cold PME. […] Purity was assessed by SDS-PAGE and Coomassie Blue.\nTubulin polymerization assays were performed in 96-well half-area microplates (Costar) in a final volume of 100 μL. […] The absorbance at 340 nm was recorded in a Synergy H1 microplate reader (BioTek) for up to 45 min at 37° C. […]\nTo determine whether MMV676477 directly regulates microtubule assembly, assembly-competent tubulin from Leishmania tarentolae was purified and analyzed (FIG. 5A). […] 3 mg/mL purified L. tarentolae tubulin (3 mg/mL) was treated with serial dilutions of MMV676477 while the absorbance was measured at 340 nm over time."}},
  "data": [
    {"smiles": "CCc1c(C)nc(-n2nc(C)cc2NC(=O)c2ccccc2SC)[nH]c1=O", "note": "[MMV676477, N-(1-(5-Ethyl-4-methyl-6-oxo-1,6-dihydropyrimidin-2-yl)-3-methyl-1H-pyrazol-5-yl)-2-(methylthio)benzamide]", "values": [
      {"measurement": "activity against L. donovani axenic amastigotes (in words)", "setting": "[1]", "result": "broad activity"},
      {"measurement": "proportion of cellular polymeric tubulin", "setting": "[2]", "result": "significantly increased the proportion of cellular polymeric tubulin"},
      {"measurement": "CC50 at 72 h", "setting": "[3]", "result": 2200, "unit": "nM"},
      {"measurement": "EC50", "setting": "[4]", "result": 500, "unit": "nM"},
      {"measurement": "selectivity for purified Leishmania tubulin over mammalian tubulin", "setting": "[4]; 0.5 vs 11 μM EC50", "result": 20, "unit": "fold"}
    ]}
  ]
}
